PubChem BioAssay (NCI)
Several values for one entry are separate records, joined by “and”; a condition that tells them apart may be missing. Identical values can stand only once.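 Dose response: 5 concentrations. Exposure: 48 h. Format: 96-well plates. Endpoint: linear interpolation; highest concentration if not reached. Here, GI50 denotes the concentration required for 50% inhibition of growth. Definition used: TGI = concentration required for complete inhibition of growth.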

How the values were obtained:
Assay in all cases: NCI tumour cell line growth inhibition, 48 h
HOP-62 NSCLC = system: HOP-62 NSCLC
HT29 colon = system: HT29 colon
MOLT-4 leukemia = system: MOLT-4 leukemia
786-0 renal = system: 786-0 renal
HCC-2998 colon = system: HCC-2998 colon
SW-620 colon = system: SW-620 colon
TK-10 renal = system: TK-10 renal
EKVX NSCLC = system: EKVX NSCLC
IGROV1 ovarian = system: IGROV1 ovarian
UACC-257 melanoma = system: UACC-257 melanoma

Compound | TGI (HOP-62 NSCLC) | TGI (HT29 colon) | TGI (MOLT-4 leukemia) | TGI (786-0 renal) | TGI (HCC-2998 colon) | TGI (SW-620 colon) | TGI (TK-10 renal) | TGI (EKVX NSCLC) | TGI (IGROV1 ovarian) | TGI (UACC-257 melanoma) | GI50 (HOP-62 NSCLC) | GI50 (HT29 colon) | GI50 (MOLT-4 leukemia) | GI50 (786-0 renal) | GI50 (HCC-2998 colon) | GI50 (SW-620 colon) | GI50 (TK-10 renal) | GI50 (EKVX NSCLC) | GI50 (IGROV1 ovarian) | GI50 (UACC-257 melanoma)
COc1cc(C2c3cc4c(cc3OC(C)(N3CCCC3)C2C)OCO4)cc(OC)c1OC (stereo not drawn) | 66.8 µM | 0.836 µM | 10.6 µM | > 100 µM | 2.57 µM | > 100 µM | > 67.1 µM | > 50.8 µM | 46.7 µM | > 100 µM |  |  |  |  |  |  |  |  |  | 
O=C(O)c1ccc(CN2CCC(CN[C@@H]3C[C@H]3c3ccccc3)CC2)cc1 | > 100 µM | > 100 µM | > 100 µM | > 100 µM | > 100 µM | > 100 µM | > 100 µM | > 100 µM | > 100 µM | > 100 µM | > 100 µM | > 100 µM | > 100 µM | > 100 µM | > 100 µM | > 100 µM | > 100 µM | > 100 µM | > 100 µM | > 100 µM
COc1cc(NS(=O)(=O)c2ccc(C)cc2)c2nccnc2c1 | > 100 µM | > 100 µM | 52.3 µM | > 100 µM | > 100 µM | > 100 µM | > 100 µM | > 100 µM | > 100 µM | > 100 µM |  |  |  |  |  |  |  |  |  | 
CCN(CC)CCCC(CCl)Nc1ccnc2cc(Cl)ccc12 (stereo not drawn) | 71.8 µM and > 100 µM | > 100 µM | 81.1 µM and > 34.3 µM | 32.8 µM and 62 µM | 27.8 µM | 54.4 µM and > 100 µM | 22.2 µM and 29.4 µM | 87.2 µM and > 100 µM | > 100 µM | 15.3 µM and 31.1 µM | 25.7 µM and 28.7 µM | 14.7 µM and 6.38 µM |  | 14.8 µM and 18 µM | 11.9 µM | 22.5 µM and 33.5 µM | 10.1 µM and 14.1 µM | 30.4 µM and 29.1 µM | 70.5 µM and 69.1 µM | 3.78 µM and 14.6 µM
O=C1C=C(Nc2ccccc2C(=O)CC(=O)C(=O)Nc2cccc([N+](=O)[O-])c2)c2ccccc2C1=O | > 100 µM | > 100 µM | > 100 µM | > 100 µM | > 100 µM | 87 µM | > 100 µM | > 100 µM | > 100 µM | 78.5 µM |  |  |  |  |  |  |  |  |  | 
COc1ccc([C@@]2(O)c3c(ccc(O)c3OC)[C@H]2OC)c(OC)c1 | > 100 µM | > 100 µM | > 100 µM | > 100 µM | > 100 µM | > 100 µM | > 100 µM | > 100 µM | > 100 µM | > 100 µM |  |  |  |  |  |  |  |  |  | 
Cc1ccc(S(=O)(=O)N=Nc2c(O)[nH]c3cc(O)c(C(=O)O)cc23)cc1 | > 100 µM | > 100 µM | > 100 µM | > 100 µM | > 100 µM | > 100 µM | > 100 µM | > 100 µM | > 100 µM | > 100 µM |  |  |  |  |  |  |  |  |  | 
Cc1nnc(-c2ccc(C)c(-c3ccc(C(=O)Nc4cccc(C#N)c4)cc3)c2)o1 | > 25 µM | > 25 µM | > 25 µM | > 25 µM | > 25 µM | > 25 µM | > 25 µM | > 25 µM | > 25 µM | > 25 µM | > 25 µM | > 25 µM | > 25 µM | > 25 µM | > 25 µM | > 25 µM | > 25 µM | > 25 µM | > 25 µM | > 25 µM
CCN1C(=O)/C(=C/c2c(Cl)[nH]c3cc(C)c(OC)cc23)c2ccccc21 | 30.8 µM | > 100 µM | 35.2 µM | 21.3 µM | 7.15 µM | > 100 µM | 75.6 µM | 80.4 µM | > 100 µM | > 100 µM | 5.6 µM | 1.55 µM | 4.36 µM | 4.87 µM | 2.4 µM | 3.67 µM | 16.5 µM | 7.58 µM | 2.07 µM | 6.47 µM
CC1(C)N=C(N)N=C(N)N1c1ccc(CCC(=O)Nc2ccc(S(=O)(=O)F)cc2)c(Cl)c1 | > 100 µM | > 100 µM | > 100 µM | > 100 µM | > 100 µM | > 100 µM | > 100 µM | > 100 µM | > 86.5 µM | > 100 µM | 1.86 µM | 0.15 µM | 1.2 µM | 0.697 µM | 0.997 µM | 0.144 µM | 0.604 µM | 2.78 µM | 0.0551 µM | > 42.5 µM
CN(c1ccc(NC(=O)Nc2c(Cl)cccc2Cl)cc1)c1ccnc(Nc2cccc(CS(C)(=O)=O)c2)n1 | 11.9 µM | 7.81 µM | > 25 µM | 10.6 µM | 16.8 µM | > 16.8 µM | 9.02 µM | > 25 µM | > 17 µM | 6.55 µM | 3.71 µM | 2.16 µM | > 25 µM | 3.63 µM | 4.78 µM | 1.62 µM | 3.98 µM | 6.31 µM | 4.57 µM | 1.94 µM
CCCCCCCCn1ccc2cc(NC(=O)Cn3cc(CN4CCCCCC4)nn3)ccc21 | 3.14 µM | 3.46 µM | 5.08 µM | 3.07 µM | 3.35 µM | 3.33 µM | 3.06 µM | 3.43 µM | 3.33 µM | 3.58 µM | 1.64 µM | 1.73 µM | 2.05 µM | 1.68 µM | 1.78 µM | 1.73 µM | 1.63 µM | 1.68 µM | 1.72 µM | 1.91 µM
CCCCCCCCCCCCCCCCCCOC[C@H](COP(=O)(O)O[C@H]1[C@H](O)[C@@H](O)[C@H](O)C[C@H]1O)OC | > 100 µM and 41.5 µM | > 100 µM and 26.2 µM | > 100 µM and 33 µM | > 100 µM and 57.8 µM | > 100 µM and 20.5 µM | > 100 µM and 39.3 µM | > 100 µM and 20.7 µM | > 100 µM and 26.8 µM | 60.6 µM and 13.5 µM | > 100 µM and 31.5 µM | > 100 µM and 15.7 µM | 58.7 µM and 13.1 µM | 27 µM and 12.4 µM | > 100 µM and 15.9 µM | 24.2 µM and 6.97 µM |  | 41.8 µM and 7.74 µM | 82.8 µM and 13.3 µM | 21.9 µM and 3.28 µM | > 100 µM and 17 µM
O=S(=O)(C1=CC(S(=O)(=O)c2ccccc2)CN(Cc2ccccc2)C1c1cccc2ccccc12)c1ccccc1 (stereo not drawn) | > 69 µM | > 69 µM | > 69 µM | > 69 µM | > 69 µM | > 69 µM | > 69 µM | > 69 µM | > 69 µM | > 69 µM |  |  |  |  |  |  |  |  |  | 
